Test results published in patent US8802104B2, “Parathyroid hormone receptor activation and stem and progenitor cell expansion” (The General Hospital Corporation, priority 2002, dated 2014).

Legend:
[1] = PTH administration following myeloablation and bone marrow transplantation: survival; type: in vivo, C57Bl/6 mice; settings: at 30 days; lethal irradiation, limiting numbers of donor bone marrow cells, pulse dosing of PTH after transplant; FIG. 6
Procedure: For the competitive transplant studies, 4×10^5 BM MNCs, obtained from CD45.1^+ B6.SJL (Jackson Laboratories, Bar Harbor, Me.) mice were mixed with 2×10^5 cells from mock injected or PTH injected CD45.2^+ C57Bl/6 mice. Recipient B6.SJL mice that had been lethally irradiated 24 hours previously with 10Gy of radiation (^137Cs source) were injected with cells. After 6 weeks, the mice were euthanized with CO2, the BM was removed and flushed with fully supplemented Iscove's Medium. The relative contribution of engraftment from the different cell sources was assessed by flow cytometry utilizing anti-CD45.1 and anti-CD45.2 antibodies (Pharmingen, San Diego, Calif.). To assess the effects of PTH administration post transplantation, recipient C57Bl/6 mice were lethally irradiated and then injected with 2×10^5 BM MNCs from a donor B6.SJL mouse. Twenty-four hours following the injection of the cells, mice were injected with PTH or mock injected as described above for four weeks.
Assessing whether PPR stimulation could affect models relevant to the clinical use of stem cells in humans, the impact of PTH administration on animals undergoing myeloablation and bone marrow transplantation was assessed. Limiting numbers of bone marrow derived donor cells were used to mimic a setting of therapeutic need. […]

[2] = tested on: leukemic cells; assay: Direct effect of PTH on leukemic cells in vitro; type: cell-based
[3] = tested on: hematopoietic progenitors (CFU-C); assay: In vivo PTH administration: CFU-C assay; design: species or system C57Bl/6 mice; settings: four weeks PTH; P=0.780, FIG. 5g
Procedure: Mononuclear cells were isolated from the bone marrow and cultured at 10^4 cells/ml in the following medium: 0.9% methylcellulose, 15% FBS, 1% BSA, 10 μg/ml rh insulin, 200 μg/ml human transferrin, 10^−4 M 2-mercaptoethanol, 2 mM L-glutamine, 50 ng/ml rmSCF, 10 ng/ml rmIL-3, 10 ng/ml rhIL-6 and 3 units/ml rhEpo (M3434; Stem Cell Technologies, Vancouver, Canada). At day 10, the total number of colonies were counted and reported as total CFU-Cs.
For PTH administration, 6-8 week old wild type C57/B male mice were used. Rat PTH (1-34) (80 μg/Kg of body weight) was injected intraperitoneally 5×/week for 4 weeks (n=5). Control mice (n=4) were injected with an equivalent volume of vehicle. At the end of the treatment period, ionized serum calcium was measured by the Ciba/Corning 634 Ca^++/pH analyzer, and, after euthanasia, the hind limbs and forelimbs were dissected and utilized for cytologic and histologic analysis.
As treatment of stromal cells with PTH led to an increase in the ability of the stromal cell population to support hematopoietic stem cells, it was investigated whether these effects could be recapitulated in vivo. Wild-type C57Bl/6 mice were injected daily with PTH using an intermittent dosing schedule known to increase osteoblasts, and the frequencies of LTC-ICs in the bone marrow were measured. […]

[4] = tested on: HSC pool in the bone marrow; assay: HSC pool in bone marrow following chemotherapy (competitive transplant); type: in vivo, C57Bl/6 mice
Procedure: (§1) Wild-type C57Bl/6 mice were treated with 5 mg of cyclophosphamide (Day 1). The day following injection of cyclophosphamide, mice received no treatment or were treated for 8 days with G-CSF (5 μg/day), 11 days with PTH (80 μg/kg/day) or a combination of G-CSF plus PTH. Mice that received a combination of both G-CSF and PTH received G-CSF treatment for 8 days and PTH treatment for 11 days. Following this treatment protocol, mice were injected with cyclophosphamide on Day 15 and treated with G-CSF, PTH or G-CSF and PTH as described above. The treatment protocol was then repeated for two subsequent cycles, as outlined in FIG. 7.
(§2) At the end of the four-cycle treatment with cyclophosphamide and G-CSF/PTH, the bone marrow was removed from the treated mice and competitive transplants into B6.SJL mice were performed to measure the maintenance of the HSC pool in the bone marrow. This involved mixing 5×10^5 BM cells from the treated C57Bl/6 mice (CD45.2) with 2.5×10^5 BM cells from the B6.SJL mice (CD45.1). These cells were then injected into lethally irradiated B6.SJL mice. Eighteen weeks following injection of the cells, peripheral blood was collected from the mice and the relative contribution of the HSCs from the treated animals was measured by flow cytometry for the CD45.2^+ cells. To assess the ability of the HSCs to be mobilized into the peripheral circulation, one week following treatment mice were mobilized with G-CSF (5 μg/day) for 5 days. Peripheral blood (300 μl) was collected from these mice and mixed with 2.5×10^5 BM cells from a B6.SJL mouse. These cells were injected into a lethally irradiated B6.SJL host. Eighteen weeks following injection of the cells, peripheral blood was collected from the mice and the relative contribution of the HSCs from the treated animals was measured by flow cytometry for the CD45.2^+ cells.

[5] = tested on: HSCs in the peripheral circulation; assay: G-CSF mobilization of HSCs into peripheral circulation after chemotherapy; type: in vivo, C57Bl/6 mice
Procedure: as §1, §2

Rat PTH (1-34)
survival [1]: 100%
direct effect on leukemic cells [2]: did not directly affect
level of hematopoietic progenitors by CFU-C assay [3]: did not affect
HSC pool in the bone marrow following myelotoxic chemotherapy ([4]; PTH, non-G-CSF treated animals): increased the HSC pool
HSC pool in the bone marrow following chemotherapy ([4]; concurrent treatment with PTH and G-CSF): retention of the HSC pool
mobilization of HSCs into the circulation with G-CSF ([5]; no supportive G-CSF during chemotherapy, prior PTH treatment): increased with prior PTH treatment
mobilization of HSCs into the peripheral circulation ([5]; supportive G-CSF with concurrent PTH): partially reversed
